This passage reports Ki results from BindingDB's records for doi:10.1016/S0893-133X(98)00099-2 (University of North Carolina, 1999).

Some targets named below: D(3) dopamine receptor (Rattus norvegicus, UniProt P19020); D(1A) dopamine receptor (Rattus norvegicus, UniProt P18901); D(1B) dopamine receptor (Rattus norvegicus, UniProt P25115).
The target in the next experiment is T1, D(4) dopamine receptor (Rattus norvegicus, UniProt P30729).
T1 sequence (P30729 whole entry): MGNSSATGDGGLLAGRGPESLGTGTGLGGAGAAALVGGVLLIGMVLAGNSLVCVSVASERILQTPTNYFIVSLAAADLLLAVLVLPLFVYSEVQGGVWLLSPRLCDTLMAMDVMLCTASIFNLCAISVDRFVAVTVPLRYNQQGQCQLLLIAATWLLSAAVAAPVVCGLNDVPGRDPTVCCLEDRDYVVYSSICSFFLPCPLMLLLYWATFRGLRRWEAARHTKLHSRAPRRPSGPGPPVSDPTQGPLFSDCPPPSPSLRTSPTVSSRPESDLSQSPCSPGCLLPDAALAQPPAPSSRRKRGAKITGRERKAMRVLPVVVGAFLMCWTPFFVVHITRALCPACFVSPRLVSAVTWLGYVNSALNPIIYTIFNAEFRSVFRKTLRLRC

The target of experiment [1] is 5-hydroxytryptamine receptor 6 (Rattus norvegicus, UniProt P31388).
Sequence of 5-hydroxytryptamine receptor 6 (P31388 whole entry): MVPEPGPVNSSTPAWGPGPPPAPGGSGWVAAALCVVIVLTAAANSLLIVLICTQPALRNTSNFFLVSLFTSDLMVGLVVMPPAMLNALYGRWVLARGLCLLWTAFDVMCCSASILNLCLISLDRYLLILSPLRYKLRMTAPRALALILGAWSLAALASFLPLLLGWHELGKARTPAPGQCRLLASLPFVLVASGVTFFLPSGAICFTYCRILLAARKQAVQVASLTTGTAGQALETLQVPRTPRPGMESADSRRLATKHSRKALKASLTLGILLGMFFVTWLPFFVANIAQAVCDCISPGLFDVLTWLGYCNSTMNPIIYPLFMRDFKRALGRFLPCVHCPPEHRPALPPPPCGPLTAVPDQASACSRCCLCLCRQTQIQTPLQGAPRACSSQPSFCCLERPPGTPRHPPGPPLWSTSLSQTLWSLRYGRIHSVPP
For experiment [2], the target named is 5-hydroxytryptamine receptor 7 (Rattus norvegicus, UniProt P32305).
Sequence of 5-hydroxytryptamine receptor 7 (P32305 whole entry): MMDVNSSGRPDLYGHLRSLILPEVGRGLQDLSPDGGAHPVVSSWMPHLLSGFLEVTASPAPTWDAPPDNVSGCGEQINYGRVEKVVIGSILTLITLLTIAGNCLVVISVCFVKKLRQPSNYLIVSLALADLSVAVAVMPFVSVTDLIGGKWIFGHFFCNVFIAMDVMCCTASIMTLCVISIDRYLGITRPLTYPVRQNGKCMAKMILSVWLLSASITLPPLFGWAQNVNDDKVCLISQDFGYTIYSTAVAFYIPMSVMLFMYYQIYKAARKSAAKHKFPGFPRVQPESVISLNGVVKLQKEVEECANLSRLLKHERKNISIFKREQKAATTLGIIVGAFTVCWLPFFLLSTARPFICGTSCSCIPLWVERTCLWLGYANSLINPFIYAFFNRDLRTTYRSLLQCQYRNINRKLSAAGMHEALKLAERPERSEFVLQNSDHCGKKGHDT

Several values for one entry are separate records, joined by “and”; a condition that tells them apart may be missing. Identical values can stand only once. Where only a bound is given, the exact number is not on record here.

Sequence of D(3) dopamine receptor (P19020 whole entry): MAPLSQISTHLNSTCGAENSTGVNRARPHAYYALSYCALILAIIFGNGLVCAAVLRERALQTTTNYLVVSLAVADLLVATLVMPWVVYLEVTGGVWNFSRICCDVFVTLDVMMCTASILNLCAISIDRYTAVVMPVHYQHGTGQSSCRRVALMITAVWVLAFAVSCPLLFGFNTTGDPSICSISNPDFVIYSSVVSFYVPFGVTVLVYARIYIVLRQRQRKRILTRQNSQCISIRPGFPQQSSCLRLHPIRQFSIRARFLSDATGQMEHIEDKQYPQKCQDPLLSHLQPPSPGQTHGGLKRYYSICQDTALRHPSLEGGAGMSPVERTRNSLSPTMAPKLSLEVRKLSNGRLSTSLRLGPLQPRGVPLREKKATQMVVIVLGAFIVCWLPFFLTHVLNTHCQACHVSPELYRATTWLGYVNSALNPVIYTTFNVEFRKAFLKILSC
Sequence of D(1B) dopamine receptor (P25115 whole entry): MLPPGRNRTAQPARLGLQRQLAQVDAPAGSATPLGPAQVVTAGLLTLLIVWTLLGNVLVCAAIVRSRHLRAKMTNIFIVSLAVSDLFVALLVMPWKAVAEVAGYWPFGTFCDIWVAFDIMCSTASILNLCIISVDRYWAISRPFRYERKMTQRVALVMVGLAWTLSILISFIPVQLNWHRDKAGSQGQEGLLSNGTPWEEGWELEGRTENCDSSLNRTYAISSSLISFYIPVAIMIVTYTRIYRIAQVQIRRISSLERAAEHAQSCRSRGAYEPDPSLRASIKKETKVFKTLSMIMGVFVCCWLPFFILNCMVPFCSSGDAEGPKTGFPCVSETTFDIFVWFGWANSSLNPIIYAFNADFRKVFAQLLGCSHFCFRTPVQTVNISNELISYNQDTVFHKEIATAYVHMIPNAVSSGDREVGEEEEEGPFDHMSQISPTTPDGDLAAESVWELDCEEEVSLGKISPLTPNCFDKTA
Sequence of D(1A) dopamine receptor (P18901 whole entry): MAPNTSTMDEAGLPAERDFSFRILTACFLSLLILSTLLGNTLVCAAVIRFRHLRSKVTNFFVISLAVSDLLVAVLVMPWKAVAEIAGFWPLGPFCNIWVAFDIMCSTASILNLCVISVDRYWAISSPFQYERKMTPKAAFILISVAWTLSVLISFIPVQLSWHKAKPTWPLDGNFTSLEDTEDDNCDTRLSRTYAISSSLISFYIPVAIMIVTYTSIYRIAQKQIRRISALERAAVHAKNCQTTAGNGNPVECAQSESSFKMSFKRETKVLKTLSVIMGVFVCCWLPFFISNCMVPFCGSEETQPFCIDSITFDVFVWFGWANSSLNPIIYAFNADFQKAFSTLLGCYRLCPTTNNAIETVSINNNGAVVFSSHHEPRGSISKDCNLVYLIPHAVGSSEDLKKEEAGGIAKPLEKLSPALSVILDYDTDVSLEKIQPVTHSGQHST

As to `CCc1cc(Cl)c(OC)c(C(=O)NC[C@@H]2CCCN2CC)c1O` [3-Chloro-5-ethyl-N-((S)-1-ethyl-pyrrolidin-2-ylmethyl)-6-hydroxy-2-methoxy-benzamide], the Ki is 0.36 nM and 0.14 nM at D(3) dopamine receptor; 64 nM on D(4) dopamine receptor.
On to `O=C1CCc2ccc(OCCCCN3CCN(c4cccc(Cl)c4Cl)CC3)cc2N1` [7-{4-[4-(2,3-dichlorophenyl)piperazin-1-yl]butoxy}-3,4-dihydroquinolin-2(1H)-one], for which the Ki in experiment [1] is 161 nM.
In the case of `Cc1c(O)ccc(N2CCN(CCCCOc3ccc4c(c3)NC(=O)CC4)CC2)c1C` [7-{4-[4-(4-hydroxy-2,3-dimethylphenyl)piperazin-1-yl]butoxy}-1,2,3,4-tetrahydroquinolin-2-one], the Ki in experiment [2] was 220 nM; on D(3) dopamine receptor, 4.5 nM and 1.63 nM; at D(1A) dopamine receptor, 460 nM; at D(1B) dopamine receptor, greater than 10000 nM; on D(4) dopamine receptor, 120 nM.
Take `Cc1cccc(N2CCN(CCCOc3ccc4ccc(=O)[nH]c4c3)CC2)c1C` [NSC_163839]: the Ki in experiment [2] is 22 nM; at D(3) dopamine receptor, 18 nM and 81.7 nM; in experiment [1] it was 680 nM; on D(1A) dopamine receptor, greater than 10000 nM; on D(1B) dopamine receptor, greater than 10000 nM; on D(4) dopamine receptor, 280 nM.

The Ki is the equilibrium dissociation constant of an inhibitor or competing ligand from its target. Higher therefore signals lower affinity.
